This passage reports melting point results from a melting point compilation (Tetko et al.; mined from patent text by program, amines drawn as free bases though some values may be those of a salt).

The term melting point denotes the temperature of the solid-liquid transition. The compound `CC(=O)NC(=N[N+](=O)[O-])NCc1ccc(Cl)nc1` showed a melting point of 125 to 126 °C.

With `N=C(Nc1cccc(Cl)c1)Nc1nc(-c2ccccc2)cs1`, the melting point lay in the range of 134 to 135 °C.

For `CNC(=NC#N)NCCSCc1ccc(CN(C)C)o1`, the melting point lay within 79 to 81.5 °C.

`CCCS(=O)(=O)NC(=O)CCc1cc(OC(C)C)nn1Cc1ccc(Cl)cc1Cl` yielded a melting point of 124 to 126 °C.

On to `CC(C)(C)c1ccc(C(=O)Nc2cn3c(CO)cccc3n2)cc1`, for which the melting point is 229 to 230 °C.

In the case of `NC(=O)c1sc(Oc2ccc3c(c2)OCO3)c2c1CCc1cnoc1-2`, the melting point was in the range of 167 to 169 °C.

For the compound `COc1ccc(C=CC(=O)CC(=O)C=Cc2ccc(OC)cc2)cc1`, the melting point was 154 to 155 °C.

In the case of `COc1cc2c(c(Cl)c1Cl)SC(C1CCCCC1)C2O` (centres undefined), the melting point was in the range of 166 to 167 °C.

The compound `CN1CCN(C(=O)/C=C/CSc2nc(N)cc(Cl)n2)CC1` returned a melting point of 155 to 156 °C.

`CC(C)C[C@H](NC1CCOCC1)C(=O)O` came in with a melting point of over 300 °C.

The compound `CN1OCCN(c2ccc(Cl)c(C(F)(F)F)c2)C1=O` had a melting point of 72 to 73 °C.

With `CCCCOc1ccc(S(=O)(=O)C2(C(=O)NO)CCN(Cc3ccc(OC)cc3)CC2)cc1`, the melting point turned out to be 173 °C.

`CCn1ncc2c1ncc1c(Cl)nc3cc(C)nn3c12` returned a melting point of 179 to 180 °C.

Compound `CC1=NN(c2ccc(C(=O)O)cc2)C(=O)C1=CNc1ccccc1C(C)C` yielded a melting point of 270 °C.

Take `CC(=O)OCc1c(C(=O)C(=O)O)c2cc(-c3ccc(OC(F)(F)F)cc3)ccc2n1Cc1ccccc1`: the melting point lay within 85 to 86 °C.

With `C[Si](C)(C)c1cc(C(F)=C(F)C(F)(F)F)c(S(N)(=O)=O)s1`, the melting point was in the range of 129 to 140 °C.

In turn, `C=C(Cc1ccccc1)C(=O)NN1CCSCC1` came in with a melting point of 141 °C.

As to `C[C@@H]1Cc2ccsc2[C@H](c2ccccc2)N1CCNS(=O)(=O)c1ccc(N)cc1` (relative stereo), the melting point lay within 184 to 186 °C.

For the compound `COc1c(C)cnc(CS(=O)c2nc3ncccc3[nH]2)c1C` (centres undefined), the melting point was in the range of 169 to 170 °C.

`O=CC(=Cc1cccc(Cl)c1)C(C=O)=Cc1cccc(Cl)c1` returned a melting point of 107 to 108 °C.

For the compound `O=c1n(F)nc(SC(Cl)Cl)n1-c1ccccc1`, the melting point lay within 128 to 130 °C.

Turning to `CCOC(=O)c1sc2nc(CBr)c(CC)c(=O)n2c1C`, the melting point lay within 146 to 148 °C.

As for `C=CCn1c(=O)n(CCC)c(=O)c2[nH]c(C34CC5CC(CC3C5)C4)nc21`, the melting point is 196 to 197 °C.

Compound `O=C1CCC(N2Cc3c(OCc4ccc(CN5CCN(CC(F)(F)F)CC5)cc4)cccc3C2=O)C(=O)N1` (centres undefined) had a melting point of 133 to 135 °C.

The compound `O=S1(=O)NC2CCCN2c2ccc(O)cc21` (centres undefined) gave a melting point of 237 to 242 °C.

On to `COc1cccc(C2(c3cccc(OC)c3)CC2C=CC(=O)NC(C)CCCc2ccncc2)c1` (single isomer, unassigned), for which the melting point lay within 104 to 106 °C.

`Nc1c(N=O)c(=O)[nH]c(=O)n1Cc1ccc(Cl)cc1` came in with a melting point of over 320 °C.

As for `COC(=O)c1cc(-c2ccc(Cl)cc2)[nH]c1Cl`, the melting point was in the range of 228 to 232 °C.

For the compound `CCCC(=O)OCC(=O)C1(OC(=O)COC)CCC2C3CC(C)C4=CC(=O)C=CC4(C)C3C(O)CC21C` (centres undefined), the melting point lay within 132 to 134 °C.

The compound `CCCCCCCCCCCCCCCCCCS(=O)(=O)c1cc2ccccc2c(N=Nc2ccc(OC)cc2)c1O` gave a melting point of 117 to 119 °C.

As for `CCN1C[C@@H](O)[C@H](N(CCc2ccccc2)C(=O)c2ccccc2)C1` (relative stereo), the melting point is 71 to 75 °C.

The compound `CCCOc1c([N+](=O)[O-])cccc1[N+](=O)[O-]` yielded a melting point of 119 to 120 °C.

In turn, `COc1ccc(CNC(=O)c2cc3c(=O)n(CC#N)c(=O)n(C)c3s2)cc1` yielded a melting point of 180 to 183 °C.

Turning to `CCS(=O)(=O)N[C@H](C(=O)NCCc1cc(Br)c(OCc2ccccc2)c(OC)c1)C(C)C`, the melting point lay in the range of 128 to 130 °C.

With `Cn1nc2nc(C(C)(C)C)[nH]c(=O)c2c1N(S(C)(=O)=O)S(C)(=O)=O`, the melting point was 258 to 259 °C.

In turn, `CCCCN(c1cccc(-c2ccnc3c([N+](=O)[O-])cnn23)c1)S(=O)(=O)c1ccc(OC)cc1` gave a melting point of 189 to 190 °C.

For `C[C@]12C/C(=C\F)[C@H]3[C@@H](CCC4=CC(=O)CC[C@@H]43)[C@@H]1CCC2=O`, the melting point is 208 to 212 °C.

`COc1cccc(Oc2cccc3c2C2(COc4cc5c(cc42)OCCO5)C(=O)N3C)c1` (centres undefined) gave a melting point of 166 to 168 °C.

`COc1ccc(S(=O)(=O)N(CC(N)=O)c2ccc(Cl)cc2Cc2ccccc2Cl)cc1` yielded a melting point of 150 °C.

In turn, `CN(C)C=C(C#N)C(=O)Nc1c(F)cccc1F` displayed a melting point of 180 to 181 °C.

For `O=C(CCc1oc(-n2cnc3ccccc32)nc1-c1ccc(Cl)cc1)N1CCSC1`, the melting point lay within 125 to 126 °C.

In the case of `Cn1c(CNCC(C)(C)S(C)(=O)=O)cc2cc(NC(=O)c3ccc(OCC4CC4)cc3)ccc21`, the melting point was 168 to 169 °C.

The compound `FC(F)C(F)(F)Oc1cccc(Nc2nccc(-c3ccc(Cl)cc3)n2)c1` showed a melting point of 133 to 135 °C.

In turn, `O=C1OCCN1CCN1CCN(C2Cc3ccc(Cl)cc3Sc3cc(F)ccc32)CC1` (centres undefined) came in with a melting point of 168 to 170 °C.

On to `Cc1ccc(OC2CCN(C(=O)C(=O)Nc3ccc4[nH]c(=O)oc4c3)CC2)cc1`, for which the melting point is 203 °C.

In turn, `CC(C)NC(=S)Nc1cccc(NC(=O)Nc2ccc(Cl)cc2)c1` displayed a melting point of 197 to 198 °C.

In turn, `CC(C)C[C@H](NC(=O)OC(C)(C)C)[C@@H](O)CC(=O)NN1CCN(c2cccc(C(F)(F)F)c2)CC1` returned a melting point of 107 to 109 °C.

Take `O=C(O)c1ccc(NCc2cccc(C(F)(F)F)c2)cn1`: the melting point is 216 to 217 °C.

`CC(C)CSc1ccnc(OS(C)(=O)=O)c1` gave a melting point of 34 to 35 °C.

On to `O=c1oc2c(c(O)c1-c1ccccc1)CCCC2c1ccccc1` (centres undefined), for which the melting point was determined as 185 °C.

Compound `CC(C)c1cc(CC2SCNC2=O)cc(C(C)C)c1O` (centres undefined) came in with a melting point of 136 to 139 °C.

In the case of `COc1ccc(-c2cnc(N)c(SC)n2)cc1`, the melting point lay in the range of 139 to 140 °C.

`CCOC(=O)c1c(C)nn(-c2ccccn2)c1N` had a melting point of 80 to 81 °C.

In turn, `COC(=O)CCc1cnoc1-c1ccc(Cl)s1` returned a melting point of 34 to 35 °C.

The compound `CN1C(=O)[C@H](NC(=O)c2ccccc2)N=C(c2ccccc2)c2ccccc21` had a melting point of 224 to 225 °C.

Compound `C=CCn1c(=O)c2nc(-c3ccc(/C=C/C(=O)O)cc3)[nH]c2n(CC=C)c1=O` registered a melting point of over 300 °C.

Regarding `CCOC(=O)CC(=O)c1cccs1`, the melting point fell in the range of 143 to 145 °C.

`Cc1ccc(C)c(C2CC(=O)C=C(N)C2)c1` (centres undefined) returned a melting point of 169 to 170 °C.

As to `COC(=O)C=CN1c2ccccc2Sc2nccnc21`, the melting point lay within 165 to 169 °C.

`Cc1ccc(C2CC(=O)OC(=O)C2)cc1` registered a melting point of 160 to 162 °C.

On to `O=C(c1ccc([N+](=O)[O-])[nH]1)C(Cl)(Cl)Cl`, for which the melting point fell in the range of 160 to 163 °C.

`COCCOc1ccc(CCCOC(=O)NS(=O)(=O)c2ccc(Cl)cc2)c(Oc2ncc(C(F)(F)F)cc2Cl)c1` came in with a melting point of 147 to 150 °C.

The compound `N#Cc1c(F)cccc1Nc1c(F)cccc1F` registered a melting point of 145 to 146 °C.

Compound `CCOC(=O)c1ccc(-c2ccc(OCC(O)CO)c(-c3ccc4c(c3)C(C)(C)CCC4(C)C)c2)cc1` (centres undefined) gave a melting point of 56 °C.

`O=C(O)C1=Cc2cc(F)cc(Cl)c2OC1C(F)(F)F` (centres undefined) returned a melting point of 240 to 241 °C.

Compound `Cc1ccccc1C=C(C#N)C#N` showed a melting point of 105 to 106 °C.

In turn, `O=C(c1c(F)cccc1F)N1COCN(c2ccc(SC(F)(C(F)(F)F)C(F)(F)F)cc2F)C1=O` had a melting point of 85 to 86 °C.

Take `COc1cc2c(-c3cc4cccnc4[nH]3)cn(CCN3CCOCC3)c2cc1OC`: the melting point is 218 °C.

Turning to `CCCc1c(OCCCCCOc2ccc(Cl)cc2CCC(=O)O)ccc2c1OCCC2=O`, the melting point is 101 to 103 °C.

Take `COc1ccc(N2CCN(c3c(C)c(C)c4c(c3C)C(c3ccc(Cl)cc3)C(C)(C)O4)CC2)cc1` (centres undefined): the melting point was in the range of 181 to 183 °C.

With `N#Cc1n[nH]c2ccccc12`, the melting point was 138 to 140 °C.

`CCC(=O)Nc1cc(-c2c(-c3ccc(F)c(C)c3)nc3cccnn23)ccn1` registered a melting point of 166 to 167 °C.

`COc1ccc2cc(SCCC(=O)O)n(C)c2c1` showed a melting point of 120 to 122 °C.

`CC(C)n1c2ccccc2c2cc(NC(=O)c3ccccc3Cl)ccc21` yielded a melting point of 195 °C.

With `CS(=O)(=O)c1cccc(C(=O)Nc2ccc(-n3nc(C(F)(F)F)cc3C3CC3)cc2)c1`, the melting point lay in the range of 178 to 184 °C.

Regarding `CSc1ccc(C(=O)COc2ccc(F)cc2F)cc1`, the melting point lay within 70 to 71 °C.

`Cc1ccccc1C(=O)NC(n1cncn1)C(Cl)(Cl)CCl` (centres undefined) registered a melting point of 133 to 137 °C.

In turn, `CCCCCCCCCCCCCCOc1cccc(C(=O)N(Cc2ccccn2)C(C)=O)c1` yielded a melting point of 66 to 67 °C.

Turning to `CC(C)c1cccc(C(C)C)c1NC(=O)NCC1c2ccccc2-c2ccccc21`, the melting point fell in the range of 217 to 218 °C.

As for `O=C1COc2ccc(C3=Cc4cc(F)ccc4SC3)cc2N1`, the melting point lay in the range of 229 to 234 °C.

Regarding `CC1(C)OCCCOc2c[nH]cc2OCCCOC1(C)C`, the melting point was 48 to 50 °C.

`COC(=O)c1sc2c(c1N)c1ccccc1c(=O)n2-c1ccccc1Br`: the melting point was 214 to 216 °C.

Turning to `Cc1nc(NCC(=O)c2ccccc2)c2cc(C)sc2n1`, the melting point amounted to 159 °C.

Consider `CCCCCCCCCCCCCCCCCCNC(=O)C(=O)Nc1ccc(O)cc1`, for which the melting point came out at 192 °C.

Regarding `N#Cc1nn(-c2c(Cl)cc(C(F)(F)F)cc2Cl)c(N)c1-c1ccc(F)c(Cl)c1`, the melting point is 197 to 198 °C.

`N#Cc1ccc(-c2cnc(Cl)o2)cc1` gave a melting point of 144 °C.

`COc1ccccc1C(=O)N1CCCC(=O)c2ccc(Cl)cc2CCC1=O` gave a melting point of 179 °C.

As to `O=C(O)C1CSC(c2cccc(OCCO[N+](=O)[O-])c2)N1` (centres undefined), the melting point lay within 117 to 119 °C.

In turn, `Nc1nc(-c2ccc(Cl)cc2)c(CCC(=O)N2CCS(=O)(=O)CC2)s1` yielded a melting point of 220 to 222 °C.
